In patent US10098853B2, “Composition for treating atherosclerosis and a preparation method thereof” (KAOHSIUNG MEDICAL UNIVERSITY, priority 2011, dated 2018):
“Also recorded” adds a separate entry of the source. Blank lines part the entries; values can stand above or below the compound they belong to.

Key:
[1] = test system: cyclin D3; assay: Cyclin D3 protein expression in Ox-LDL treated HASMCs (immunoblotting); assay type: cell-based, human; conditions: FIG. 9, PD98059 10^−5 M, compound 1 5 μg/ml, rosiglitazone 5 μg/ml, Ox-LDL 30 μg/ml, 8 hours
Excerpt: (§1) Three independent experiments are made in each group.

[2] = test system: cyclin D1; assay: Cyclin D1 protein expression in Ox-LDL treated HASMCs (immunoblotting); assay type: cell-based, human; conditions: FIG. 9, PD98059 10^−5 M, compound 1 5 μg/ml, rosiglitazone 5 μg/ml, Ox-LDL 30 μg/ml, 8 hours
Excerpt: as §1

[3] = test system: Ki-67 protein; assay: Ki-67 protein immunofluorescence in Ox-LDL stimulated HASMCs; assay type: cell-based, human; conditions: Ox-LDL 30 μg/ml, 24 hours; for positive stains of Ki-67: compound 1 5 μg/ml or PD98059 10^−5 M
Protocol: For analyzing the mechanisms of compound 1 on inhibiting HASMCs proliferation, the cellular marker for proliferation, Ki-67 protein (also known as MKI67), detected with green fluorescence was the index for HASMCs proliferation. The experiment method was to stimulate HASMCs with Ox-LDL (30 μg/ml) for 24 hours, and simultaneously compound 1 (5 μg/ml) or PD98059 (an ERK 1/2 inhibitor, 10^−5 M) was added. A mouse anti-Ki-67 monoclonal antibody was combined with a DyLight™488-conjugated second antibody to confirm the HASMCs proliferation. DAPI (4′,6-diamidino-2-phenylindole), a fluorescent stain that binds strongly to DNA, was used to localize cell nuclei. Cells were observed under flourescence microscopy. The proliferative cells were quantified by counting the ratio of DyLight™488 (green) fluorescence and DAPI (blue) fluorescence.

[4] = test system: human aortic smooth muscle cells (HASMCs); assay: HASMCs proliferation induced by LPS (WST-1); assay type: cell-based
Protocol: First, HASMCs were seeded into 96-well plates.
Chalcone compounds 1 to 29 at different concentrations prepared in Experiment 1 were used to determine the effect of HASMCs proliferation induced by LPS. […] In reference to the drug concentration for cytotoxicity that HASMCs tolerate, the chalcone compounds having the relevant substituents to compound 1 were selected (rather than all chalcone compounds) to compare with each other at the same concentration.

[5] = test system: PPARγ; assay: PPARγ mRNA expression in HASMCs (real-time PCR); assay type: cell-based, human
Protocol: The anti-inflammatory effect of compound 1 was determined by the mRNA expressions of IL-1β and IL-6. HASMCs were stimulated with Ox-LDL (30 μg/ml) for 8 hours, and simultaneously treated with (i) PD98059 (5 μg/ml), (ii) rosiglitazone (5 μg/ml), (iii) compound 1 (5 μg/ml) and (iv) rosiglitazone (5 μg/ml) plus compound 1 (5 μg/ml). […] SEQ ID Nos: 1 and 2 were paired in amplification of IL-1β gene, SEQ ID Nos: 3 and 4 were paired in amplification of IL-6 gene, SEQ ID Nos: 5 and 6 were paired in amplification of PPARα gene, SEQ ID Nos: 7 and 8 were paired in amplification of PPARγ gene, and SEQ ID Nos: 9 and 10 were paired in amplification of β-actin gene.
This experiment was performed to investigate the regulatory mechanism of compound 1 on PPARγ based on PPARγ mRNA expression in HASMCs. […]

[6] = test system: human aortic smooth muscle cells (HASMCs); assay: HASMCs proliferation and cell viability induced by Ox-LDL (WST-1); conditions: FIG. 2; 1, 2.5 and 5 μg/ml, Ox-LDL 30 μg/ml, 24 hours
Protocol: For analyzing whether each genus of flavonoid compounds could inhibit the activity of HASMCs proliferation, the proliferation and cell viability of HASMCs were determined using WST-1 reagent (Roche Applied Science, Penzberg, Germany). WST-1 is a tetrazolium salt that will be cleaved to formazan by mitochondrial dehydrogenases in viable cells. First, HASMCs were seeded into 96-well plates. […] At the end of incubation, WST-1 was added into cell medium and the amount of formazan was measured at a wavelength of 450 nm by an ELISA reader.

[7] = test system: PPARα; assay: PPARα mRNA expression in HASMCs (real-time PCR); assay type: cell-based, human; conditions: FIG. 6(b); with Ox-LDL 30 μg/ml, compound 1 5 μg/ml, 2, 4, 8 and 24 hours
[8] = test system: PPARγ; assay: PPARγ protein expression in HASMCs (immunoblotting); assay type: cell-based, human; conditions: FIG. 7(b); compound 1 alone, 0, 1, 2.5 and 5 μg/ml, 4 and 8 hours
Protocol: FIG. 7(a) and FIG. 7(b) respectively are (a) the diagram showing PPARγ mRNA expression and (b) an immunoblotting spectrum showing the PPARγ protein expression of compound 1 (0, 1, 2.5 and 5 μg/ml) on HASMCs for 4 and 8 hours. Data are represented as mean±S.D. in three independent experiments. a: p<0.001, b: p<0.01.
To further confirm whether compound 1 is an inducer of PPARγ for HASMCs, cells were stimulated with compound 1 alone.

SMILES: CN(CCOc1ccc(CC2SC(=O)NC2=O)cc1)c1ccccn1 (racemic) [rosiglitazone, (RS)-5-[4-(2-[methyl(pyridin-2-yl)amino]ethoxy)benzyl]thiazolidine-2,4-dione]
cyclin D3 protein expression induced by Ox-LDL [1]: did not significantly decrease cyclin D1 and D3 protein expression; also recorded: but not PD98059 and rosiglitazone, significantly decreased the cyclin D1 and D3 upregulation
cyclin D1 protein expression induced by Ox-LDL [2]: did not significantly decrease cyclin D1 and D3 protein expression; also recorded: but not PD98059 and rosiglitazone, significantly decreased the cyclin D1 and D3 upregulation

positive stains of Ki-67 [3]: decreased the positive stains of Ki-67
SMILES: COc1cccc(-c2cc(=O)c3ccccc3o2)c1N [PD98059, 2-(2-amino-3-methoxyphenyl)-chromen-4-one]
cyclin D3 protein expression induced by Ox-LDL [1]: did not significantly decrease cyclin D1 and D3 protein expression; also recorded: but not PD98059 and rosiglitazone, significantly decreased the cyclin D1 and D3 upregulation
cyclin D1 protein expression induced by Ox-LDL [2]: did not significantly decrease cyclin D1 and D3 protein expression; also recorded: but not PD98059 and rosiglitazone, significantly decreased the cyclin D1 and D3 upregulation

positive stains of Ki-67 [3]: decreased the positive stains of Ki-67
SMILES: COc1ccc(/C=C/C(=O)c2ccccc2O)cc1 [compound 1]
reduction of proliferative (Ki-67 positive) cells compared to Ox-LDL stimulated HASMCs ([3]; FIG. 3, 5 μg/ml): about 10%
inhibition activity on HASMCs proliferation induced by LPS ([4]; FIG. 11(a), 5 μg/ml): compound 1 rather than compound 7 has inhibition activity
inhibition activity on HASMCs proliferation induced by LPS ([4]; FIG. 11(b), 2.5 μg/ml): compound 1 rather than compound 5 had inhibition activity
cytotoxicity to HASMCs ([4]; FIG. 11(c), 2 μg/ml): non-toxic to cells
inhibition activity on HASMCs proliferation induced by LPS ([4]; FIG. 11(c), 2 μg/ml): had the best inhibition activity
time at which maximum PPARγ mRNA expression was reached ([5]; FIG. 6(a), with Ox-LDL 30 μg/ml, compound 1 5 μg/ml): 8 h
PPARγ mRNA expression ([5]; FIG. 6(a), with Ox-LDL 30 μg/ml, compound 1 5 μg/ml, 2, 4, 8 and 24 hours): significantly increased PPARγ mRNA expression post 4 hours administration
PPARγ mRNA expression ([5]; FIG. 7(a), compound 1 alone, 0, 1, 2.5 and 5 μg/ml, 4 and 8 hours): significantly increased PPARγ mRNA and protein expression in dose and time dependent manners
cell proliferation compared to Ox-LDL treatment group [6]: significantly decreased in a dose dependent manner
cyclin D3 protein expression induced by Ox-LDL [1]: significantly inhibited cyclin D1 and D3 protein upregulation induced by Ox-LDL
cyclin D3 protein expression induced by Ox-LDL ([1]; listed as Compound 1): significantly decreased the cyclin D1 and D3 upregulation
PPARα mRNA expression [7]: neither Ox-LDL nor compound 1 stimulated PPARα mRNA upregulation
PPARγ protein expression [8]: significantly increased PPARγ mRNA and protein expression in dose and time dependent manners
cyclin D1 protein expression induced by Ox-LDL [2]: significantly inhibited cyclin D1 and D3 protein upregulation induced by Ox-LDL
cyclin D1 protein expression induced by Ox-LDL ([2]; listed as Compound 1): significantly decreased the cyclin D1 and D3 upregulation

SMILES: O=C(/C=C/c1ccccc1)c1ccc(O)cc1O [compound 2]
cytotoxicity to HASMCs ([4]; FIG. 11(c), 2 μg/ml): would lead to death of a part cells

SMILES: O=C(/C=C/c1ccc(OCc2ccccc2)cc1)c1ccc(O)cc1O [compound 3]
inhibition activity on HASMCs proliferation induced by LPS ([4]; FIG. 11(c), 2 μg/ml): compound 3 rather than compound 6 had inhibition activity

SMILES: COc1cccc(/C=C/C(=O)c2ccccc2O)c1 [compound 4]
inhibition activity on HASMCs proliferation induced by LPS ([4]; FIG. 11(a), 5 μg/ml): both had the similar inhibition activity

SMILES: COc1ccc(/C=C/C(=O)c2ccc(O)cc2O)cc1 [compound 5]
inhibition activity on HASMCs proliferation induced by LPS ([4]; FIG. 11(b), 2.5 μg/ml): compound 1 rather than compound 5 had inhibition activity

SMILES: COc1cccc(/C=C/C(=O)c2ccc(O)cc2O)c1 [compound 6]
inhibition activity on HASMCs proliferation induced by LPS ([4]; FIG. 11(c), 2 μg/ml): compound 3 rather than compound 6 had inhibition activity

SMILES: COc1ccc(/C=C/C(=O)c2ccccc2)cc1 [compound 7]
inhibition activity on HASMCs proliferation induced by LPS ([4]; FIG. 11(a), 5 μg/ml): compound 1 rather than compound 7 has inhibition activity

SMILES: COc1cccc(/C=C/C(=O)c2ccccc2)c1 [compound 8]
inhibition activity on HASMCs proliferation induced by LPS ([4]; FIG. 11(c), 2 μg/ml): did not have inhibition activity

SMILES: O=C(/C=C/c1ccccc1)c1ccccc1 [compound 9]
inhibition activity on HASMCs proliferation induced by LPS ([4]; FIG. 11(c), 2 μg/ml): showed no inhibition activity

SMILES: O=C(/C=C/c1ccccc1)c1ccccc1O [compound 10]
inhibition activity on HASMCs proliferation induced by LPS ([4]; FIG. 11(b), 2.5 μg/ml): did not have inhibition activity

SMILES: O=C(/C=C/c1cccc(OCc2ccccc2)c1)c1ccccc1O [compound 11]
cytotoxicity to HASMCs ([4]; FIG. 11(c), 2 μg/ml): would lead to death of a part cells

SMILES: COc1ccc(/C=C/C(=O)c2ccccc2Br)cc1 [compound 12]
inhibition activity on HASMCs proliferation induced by LPS ([4]; FIG. 11(b), 2.5 μg/ml): compound 12 rather than compound 14 had inhibition activity

SMILES: COc1cccc(/C=C/C(=O)c2cccc(Br)c2)c1 [compound 14]
inhibition activity on HASMCs proliferation induced by LPS ([4]; FIG. 11(b), 2.5 μg/ml): compound 12 rather than compound 14 had inhibition activity

SMILES: COc1cccc(/C=C/C(=O)c2ccc(Cl)cc2)c1 [compound 15]
cytotoxicity to HASMCs ([4]; FIG. 11(c), 2 μg/ml): would lead to death of a part cells

SMILES: O=C(/C=C/c1ccccc1)c1cc(Br)ccc1O [compound 19]
cytotoxicity to HASMCs ([4]; FIG. 11(a), 5 μg/ml): would lead to death of a part of cells
inhibition activity on HASMCs proliferation induced by LPS ([4]; FIG. 11(a), 5 μg/ml): had inhibition activity

SMILES: COc1ccc(/C=C/C(=O)c2cc(Br)ccc2O)cc1 [compound 20]
cytotoxicity to HASMCs ([4]; FIG. 11(a), 5 μg/ml): would lead to death of a part of cells
inhibition activity on HASMCs proliferation induced by LPS ([4]; FIG. 11(a), 5 μg/ml): had inhibition activity

SMILES: COc1cccc(/C=C/C(=O)c2cc(Br)ccc2O)c1 [compound 21]
cytotoxicity to HASMCs ([4]; FIG. 11(a), 5 μg/ml): would lead to death of a part of cells
inhibition activity on HASMCs proliferation induced by LPS ([4]; FIG. 11(a), 5 μg/ml): had inhibition activity

SMILES: O=C(/C=C/c1cccc(OCc2ccccc2)c1)c1cc(Br)ccc1O [compound 22]
cytotoxicity to HASMCs ([4]; FIG. 11(c), 2 μg/ml): would lead to death of a part cells

SMILES: O=C(/C=C/c1ccc(OCc2ccccc2)cc1)c1cc(Br)ccc1O [compound 23]
cytotoxicity to HASMCs ([4]; FIG. 11(a), 5 μg/ml): would lead to death of a part of cells
inhibition activity on HASMCs proliferation induced by LPS ([4]; FIG. 11(a), 5 μg/ml): had inhibition activity

SMILES: O=C(/C=C/c1ccc(OCc2ccccc2)cc1)c1ccccc1O [compound 25]
cytotoxicity to HASMCs ([4]; FIG. 11(a), 5 μg/ml): would result in HASMC death

SMILES: COc1ccc(/C=C/C(=O)c2ccccc2I)cc1 [compound 26]
inhibition activity on HASMCs proliferation induced by LPS ([4]; FIG. 11(b), 2.5 μg/ml): slightly better than that of compounds 26 and 28

SMILES: COc1ccc(/C=C/C(=O)c2ccccc2F)cc1 [compound 27]
inhibition activity on HASMCs proliferation induced by LPS ([4]; FIG. 11(b), 2.5 μg/ml): inhibition activity of compound 1 was better than those of compounds 12 and 27

SMILES: COc1ccc(/C=C/C(=O)c2ccccc2Cl)cc1 [compound 28]
inhibition activity on HASMCs proliferation induced by LPS ([4]; FIG. 11(b), 2.5 μg/ml): slightly better than that of compounds 26 and 28

SMILES: O=C(/C=C/c1ccc(O)cc1)c1ccccc1 [compound 29]
inhibition activity on HASMCs proliferation induced by LPS ([4]; FIG. 11(c), 2 μg/ml): had no inhibition activity
